Data from patent US12037355B2, “Triterpene saponin analogues” (priority 2015, dated 2024).

Legend:
pertussis toxin = experiment: Adacel (Tdap vaccine) immunogenicity in mice, anti-PT antibody in serum; assay type: in vivo; conditions: for Antibody levels augmented compared to immunization with Adacel alone: adjuvant with Adacel
hemolysis = experiment: Hemolytic assay; assay type: cell-based
Method: (§1) Natural and synthetic QS-21 (SQS-21 or SAPONEX®) and a variety of analogs were tested for hemolytic activity.

Stability at 37° C. = assay type: physicochemical; conditions: for degradation: after two weeks at 37° C.
Method: as §1

[1] = cited from earlier work
[2] = Companion toxicity study, body mass three days after immunization
Method: as §1

[3] = Pilot pharmacology/toxicology study with Adacel, QS-21 and TiterQuil-1055; conditions: for changes in blood chemistry or hematology results: SC days 1 and 15, bled day 22 (group 7 day 29); for weight loss (body weight): mice, 50 mcg TiterQuil-1055, 20 mcg QS-21; for liver histopathology (hepatocellular cytoplasmic vacuolization): sacrificed day 22, 33 tissues examined
[4] = Weight loss in Engerix-B / TiterQuil-1055 study; conditions: mice
[5] = groups of 5 mice, 2 weeks after second SC immunization
[6] = groups of 5 mice, 50 mcg TiterQuil-1055, 20 mcg QS-21, Adacel 2.5 mcg pertussis toxin
[7] = 50 mcg TiterQuil-1055, 20 mcg QS-21, Adacel 2.5 mcg pertussis toxin

| Compound | Antibody levels augmented compared to immunization with Adacel alone (pertussis toxin; [5]) | hemolytic activity (hemolysis) | degradation (Stability at 37° C.) | tolerated (maximum) dose in cancer patients ([1]; cancer patients, above this dose local and systemic side effects) | maximum dose for healthy patients ([1]; healthy patients) | highest practical tolerable dose ([1]; well (non-cancer) adult and child recipients) | body mass lost on average ([2]; 20 mcg QS-21) | changes in blood chemistry or hematology results [3, 6] | weight loss (body weight) [3] | liver histopathology (hepatocellular cytoplasmic vacuolization) [3, 7] | Antibody levels (pertussis toxin; 0.5 mcg dose of Adacel, alone or with TiterQuil-1055, groups of 5 mice, 2 weeks after second SC immunization) | Antibody levels 2 weeks later (pertussis toxin; TiterQuil-1055 with Adacel, 2 weeks after the 2-week post-second-immunization bleed) | stability relative to QS-21 (Stability at 37° C.) | weight loss ([4]; 30 mcg TiterQuil-1055 dose) | weight loss ([4]; 100 mcg TiterQuil-1055 dose) | weight loss ([4]; 300 mcg TiterQuil-1055 dose) | body mass gained on average ([2]; young mice) | weight loss ([3]; groups of 5 mice, SC days 1 and 15, weighed daily, 50 mcg TiterQuil-1055, 20 mcg QS-21, Adacel 2.5 mcg pertussis toxin) |
| --- | --- | --- | --- | --- | --- | --- | --- | --- | --- | --- | --- | --- | --- | --- | --- | --- | --- | --- |
| QS-21 [reference compound] | 10 fold | highly hemolytically active | 20% | 100 to 150 µg | ~50 µg | 25 to 50 µg | 8-10% | No changes | 8-9% | Mild vacuolar changes | – | – | – | – | – | – | – | – |
| CC1O[C@@H](OC2C(O)[C@@H](NC(=O)CCCCCCCCCCC(=O)O)C(CO)O[C@H]2OC(=O)[C@]23CCC(C)(C)CC2C2=CCC4C5(C)CC[C@H](O)C(C)(C=O)C5CC[C@]4(C)C2(C)CC3O)C(O)C(O)[C@H]1O[C@@H]1OC[C@@H](O)C(O)C1O (stereo partly drawn) [Compound I-4] | 70 fold | much lower or undetectable hemolytic activity | without detectable degradation | – | – | – | – | No changes | No weight loss | No changes at all | 52,344 | further increased | increased stability | No weight loss | 4% | 5% | 5% | no other mice |
